Results as given in US20170056336A1, “CO-TARGETING ANDROGEN RECEPTOR SPLICE VARIANTS AND MTOR SIGNALING PATHWAY FOR THE TREATMENT OF CASTRATION-RESISTANT PROSTATE CANCER” (British Columbia Cancer Agency Branch, priority 2015, published 2017).

What was measured:
[1] = molecular target: T1, AR (Homo sapiens, UniProt P10275, T878A); experiment: PSA-, ARR3-, PB-luciferase AR reporter assay in LNCaP95 cells; conditions: LNCaP95 cells treated with androgen, BEZ-235 15 nM
T1 sequence (P10275 1-920 T878A): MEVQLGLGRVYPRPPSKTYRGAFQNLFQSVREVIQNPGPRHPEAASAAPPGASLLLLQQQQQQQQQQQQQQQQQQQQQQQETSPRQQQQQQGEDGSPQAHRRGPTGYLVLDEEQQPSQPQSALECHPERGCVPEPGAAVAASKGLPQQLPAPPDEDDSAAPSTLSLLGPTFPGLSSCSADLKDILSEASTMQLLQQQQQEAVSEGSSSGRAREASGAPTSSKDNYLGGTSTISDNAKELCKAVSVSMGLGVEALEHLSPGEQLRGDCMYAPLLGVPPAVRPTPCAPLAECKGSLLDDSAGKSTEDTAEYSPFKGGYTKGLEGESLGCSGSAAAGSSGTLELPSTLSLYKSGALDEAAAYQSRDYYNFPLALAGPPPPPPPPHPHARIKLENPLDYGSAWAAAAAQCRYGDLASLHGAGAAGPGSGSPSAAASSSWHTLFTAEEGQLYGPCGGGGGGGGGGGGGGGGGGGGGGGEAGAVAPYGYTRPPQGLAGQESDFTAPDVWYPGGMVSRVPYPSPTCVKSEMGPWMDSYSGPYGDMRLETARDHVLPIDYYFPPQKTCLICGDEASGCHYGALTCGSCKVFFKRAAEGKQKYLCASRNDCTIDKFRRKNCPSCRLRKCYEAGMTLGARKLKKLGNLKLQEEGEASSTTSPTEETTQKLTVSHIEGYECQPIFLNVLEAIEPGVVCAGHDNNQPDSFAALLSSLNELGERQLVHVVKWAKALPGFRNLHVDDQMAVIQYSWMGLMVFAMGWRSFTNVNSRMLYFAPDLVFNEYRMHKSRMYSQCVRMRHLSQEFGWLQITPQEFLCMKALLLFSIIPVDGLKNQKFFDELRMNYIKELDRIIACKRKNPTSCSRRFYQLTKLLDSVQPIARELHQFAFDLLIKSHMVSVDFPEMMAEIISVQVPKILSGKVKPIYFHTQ

[2] = molecular target: T2, AR NTD (Homo sapiens, UniProt P10275); experiment: AR NTD transactivation assay in LNCaP cells; assay type: cell-based; conditions: 24 h
T2 sequence (P10275 1-558): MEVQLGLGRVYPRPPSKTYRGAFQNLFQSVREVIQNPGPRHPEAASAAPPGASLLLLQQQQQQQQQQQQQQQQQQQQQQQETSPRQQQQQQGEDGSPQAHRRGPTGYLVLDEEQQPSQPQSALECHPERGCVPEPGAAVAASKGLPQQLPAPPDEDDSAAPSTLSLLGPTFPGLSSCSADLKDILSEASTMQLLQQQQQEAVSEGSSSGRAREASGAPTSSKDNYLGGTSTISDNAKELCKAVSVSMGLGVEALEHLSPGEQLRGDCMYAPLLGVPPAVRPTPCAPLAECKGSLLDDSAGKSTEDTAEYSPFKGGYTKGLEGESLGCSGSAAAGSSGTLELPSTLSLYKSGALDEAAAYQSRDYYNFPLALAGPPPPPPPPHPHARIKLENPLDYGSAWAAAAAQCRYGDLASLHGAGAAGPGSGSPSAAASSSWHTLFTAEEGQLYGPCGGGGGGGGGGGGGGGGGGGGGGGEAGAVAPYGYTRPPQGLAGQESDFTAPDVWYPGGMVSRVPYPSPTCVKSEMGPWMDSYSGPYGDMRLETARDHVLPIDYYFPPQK
Method: Transactivation assays of the AR NTD were performed in LNCaP and LNCaP95 cells cotransfected with p5xGal4UAS-TATA-luciferase and AR NTD-Gal4DBD (FIG. 2D). […] LNCaP95 cells were harvested 24 h after the treatment of indicated compounds.
The AR NTD is essential for full transcriptional activities (Quayle, S. N. et. al., PNAS 2007, 104, 1331-1336). In LNCaP cells, transactivation of the AR NTD can be induced with IL-6 or by stimulation of the PKA pathway with FSK. In LNCaP95 cells, there is high intrinsic activity of the AR NTD which cannot be further induced by stimulation of these pathways.

[3] = tested on: LNCaP95 cells; experiment: Titration of BEZ-235 for cytotoxicity in LNCaP95 cells; assay type: cell-based, human
[4] = molecular target: T3, FL-AR (Homo sapiens, UniProt P10275, T878A); experiment: PSA-, ARR3-, PB-luciferase AR reporter assay in LNCaP cells
T3 sequence (P10275 1-920 T878A): T1 sequence (P10275 1-920 T878A)

[5] = molecular target: T4, AR-V7 (Homo sapiens, UniProt P10275); experiment: PB-luciferase assay in Cos-1 cells transfected with AR-V7; assay type: cell-based; conditions: 24 h, serum-free
T4 construct: expressed in transfected cells; host or cells: Cos-1
T4 sequence (P10275 1-644 isoform P10275-3): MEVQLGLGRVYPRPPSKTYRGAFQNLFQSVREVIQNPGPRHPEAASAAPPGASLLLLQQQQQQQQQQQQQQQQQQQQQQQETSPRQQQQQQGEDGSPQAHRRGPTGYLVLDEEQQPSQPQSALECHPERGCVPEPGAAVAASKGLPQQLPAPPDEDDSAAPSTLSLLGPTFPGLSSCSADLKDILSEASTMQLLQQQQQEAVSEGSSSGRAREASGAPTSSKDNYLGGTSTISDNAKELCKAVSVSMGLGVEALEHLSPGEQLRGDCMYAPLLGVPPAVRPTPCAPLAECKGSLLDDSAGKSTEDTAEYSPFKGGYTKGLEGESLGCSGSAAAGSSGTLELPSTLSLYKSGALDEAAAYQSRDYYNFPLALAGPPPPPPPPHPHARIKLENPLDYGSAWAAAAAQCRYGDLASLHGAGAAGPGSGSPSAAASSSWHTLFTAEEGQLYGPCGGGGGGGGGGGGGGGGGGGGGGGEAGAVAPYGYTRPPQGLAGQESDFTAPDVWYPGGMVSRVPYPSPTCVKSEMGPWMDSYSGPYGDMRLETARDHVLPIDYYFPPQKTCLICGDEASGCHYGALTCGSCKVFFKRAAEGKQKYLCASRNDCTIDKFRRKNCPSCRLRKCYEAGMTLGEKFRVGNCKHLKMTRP
Text: Ectopic protein levels of AR-V7 and AR-V567 in Cos-1 cells are shown relative to endogenous levels of FL-AR in LNCaP cells.

[6] = tested on: genes regulated by FL-AR and AR-V7 in LNCaP95 cells; experiment: Gene expression analysis (quantitative real-time RT-PCR) in LNCaP95 cells; assay type: cell-based, human

Cn1c(=O)n(-c2ccc(C(C)(C)C#N)cc2)c2c3cc(-c4cnc5ccccc5c4)ccc3ncc21 [BEZ-235, 2-methyl-2-[4-(3-methyl-2-oxo-8-quinolin-3-ylimidazo[4,5-c]quinolin-1-yl)phenyl]propanenitrile]
PSA-, ARR3- and PB-luciferase activities [1]: significantly increased | AR-NTD transactivation induced by FSK ([2]; FSK 50 uM): no effect | AR-NTD transactivation induced by IL-6 ([2]; IL-6 50 ng/ml): significantly inhibited | cytotoxicity ([3]; 500 nM BEZ-235): enormous cytotoxicity | non-toxic concentration ([3]; titration experiments): 15 nM | activity of FL-AR in response to androgen [4]: did not enhance | transcriptional activity of AR-V7 [5]: no effect | TMPRSS2 or FKBP5 transcripts in response to BEZ-235 [6]: No similar effects | levels of FL-AR transcript [6]: did not increase | increase in transcript levels of AR-V7 ([6]; absence of androgen): greater than 2 fold | levels of PSA transcript ([6]; absence of androgen): induced | transcript levels of AR-V7 target genes (UBE2C, CDC20, Akt1) ([6]; absence of androgen): consistently reduced | androgen-induced levels of PSA transcripts ([6]; compared to androgen alone): significantly increased | UBE2C levels ([6]; monotherapy, regardless of androgen): attenuated
